From patent US20100029542A1, “PROTEIN STERILISATION BY RADIATION AND ADDITION OF A STABILISING COMPOSITION” (priority 2006, published 2010)
Like-named read-outs stand apart in the source and are kept apart here.

What was measured:
glucose oxidase = target: T1, glucose oxidase (Aspergillus niger, UniProt P13006); test: Activity recovery of glucose oxidase in dry formulations following gamma irradiation; assay type: physicochemical; conditions: for Enzyme activity remaining after gamma-irradiation: glucose oxidase 350 μg mL^−1 prior to drying, dry, 25-40 kGy, ambient temperature
T1 construct: purchased Biocatalysts G575P
Procedure: (§1) In each example, an aqueous solution of a protein was prepared with selected additives in an Eppendorf tube or in a glass vial. Water was removed from the formulation by drying under a stream of nitrogen at 30° C. and subsequent incubation at atmospheric pressure in the presence of a dessicant. The Eppendorf tubes or the glass vials were sealed and delivered to an industrial sterilisation service for gamma irradiation, with a dose range typical for sterile medical products. The gamma-irradiated samples were reconstituted on their return and analysed for protein activity or structural integrity. The results were compared with those achieved using control (i.e. non-irradiated) samples.
(§2) The dry samples (approx. 20 μg in an Eppendorf tube) were gamma-irradiated by an industry-standard commercial sterilising service provided by Isotron PLC (Swindon, Wilts, UK), using a Cobalt 60 gamma source at ambient temperature. The radiation dose was in the range of 25-40 kGy.
(§3) The original solutions (i.e. solutions prior to drying) contained 350 μg mL^−1 of glucose oxidase and typically the total of 100 mM of protective compounds (i.e. 100 mM in case of a single compound, 50 mM+50 mM in case of two compounds, 33.3 mM+33.3 mM+33.3 mM in the case of three compounds etc.). The solutions were dried and gamma irradiated. Following the gamma irradiation, the samples, both pre- and post-gamma irradiated, were assayed for glucose oxidase activity. This was performed according to the following procedure:
Water was added to the sample to achieve 350 μg mL^−1 of glucose oxidase. 50 μL of the solution was added to 50 mL of deionised water. The following solutions were then added: • 10 mL of reagent mix (5 parts of 0.1 M sodium phosphate, pH 6+4 parts 2% w/w starch+1 part of 1 mg/mL lactoperoxidase enzyme); • 5 mL of 100 mM potassium iodide; and • 5 mL of 20% w/w glucose solution.
These were mixed together quickly. Time=0 was counted from the addition of the glucose. After 5 min, 1 ml of 5 M aq. hydrochloric acid was added to stop the reaction. The absorbance was then read at 630 nm using a Unicam UV-visible spectrophotometer (Type: Helios gamma). If the colour intensity was too great to allow an accurate reading, the sample was diluted with a defined volume of deionised water to bring the colour back on scale. The results were expressed as percentage recovery, by reference to the absorbance measured in the pre-gamma irradiation samples.

human growth hormone [1] = target: T2, human growth hormone (Homo sapiens, UniProt P01241); test: Recovery of structural integrity of human growth hormone in dry formulations following gamma irradiation (HPLC); assay type: physicochemical; conditions: as excipient in the formulation, disulphide bridge, HPLC
T2 construct: purchased National Institute of Biological Standards and Control; further samples on prescription from a GP surgery

[2] = cited from earlier work; for Rate constant k: Table 1, singlet oxygen scavengers, measured in specified solvents
catalase = target: T3, catalase (Bos taurus, UniProt P00432); test: Activity recovery of catalase in dry formulations following gamma irradiation; assay type: physicochemical, bovine; conditions: Table 6, singlet oxygen scavengers; catalase 100 μg mL^−1 prior to drying; dry; 25-40 kGy, ambient temperature
T3 construct: Catalase (from bovine liver, Sigma C9322, 2380 U /mg solid); purchased Sigma C9322; host or cells: bovine liver
T3 sequence (P00432 2-527 limits assumed): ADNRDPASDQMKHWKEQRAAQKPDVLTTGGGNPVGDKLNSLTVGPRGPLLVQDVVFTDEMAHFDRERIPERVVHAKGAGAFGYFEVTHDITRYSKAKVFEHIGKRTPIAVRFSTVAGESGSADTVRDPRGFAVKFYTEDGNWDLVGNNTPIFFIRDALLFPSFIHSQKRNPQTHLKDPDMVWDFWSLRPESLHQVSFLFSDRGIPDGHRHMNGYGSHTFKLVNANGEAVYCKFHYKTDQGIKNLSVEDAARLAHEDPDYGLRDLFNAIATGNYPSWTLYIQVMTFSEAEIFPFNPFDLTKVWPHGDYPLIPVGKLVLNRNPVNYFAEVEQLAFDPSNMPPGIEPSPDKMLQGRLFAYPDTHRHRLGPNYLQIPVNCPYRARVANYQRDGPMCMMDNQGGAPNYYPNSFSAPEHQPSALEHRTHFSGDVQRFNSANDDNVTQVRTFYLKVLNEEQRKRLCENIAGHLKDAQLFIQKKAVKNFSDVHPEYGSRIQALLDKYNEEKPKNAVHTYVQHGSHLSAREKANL
Procedure: as §1, §2
as §3, with “contained 100” for “contained 350”, “of catalase” for “of glucose oxidase”
Water was added to the sample to achieve 100 μg mL^−1 of catalase. 100 μL of the solution was added to a mixture of 18 mL of PBS and 2 mL of hydrogen peroxide (30 mM in water) in a 125 mL polypropylene pot and mixed. The resulting mixture was incubated at room temperature precisely for 30 min. In the meantime, the following reagents were mixed in a plastic cuvette for spectrophotometric measurements: • 2.73 mL of citrate/phosphate buffer (0.1 M, pH 5.0) • 100 μL of tetramethylbenzidine (TMB) (3 mg/mL, dissolved in dimethyl sulphoxide (DMSO)) • 100 μL of lactoperoxidase
Following the 30 min incubation period, 70 μL of the catalase containing mixture was added to the cuvette and absorbance was read in approximately 30 s. The results were expressed as percentage recovery, by reference to the absorbance measured in the fresh samples (i.e. prior to incubation at increased temperature).

human growth hormone [3] = target: T2, human growth hormone; test: Recovery of structural integrity of human growth hormone in dry formulations following gamma irradiation (HPLC); assay type: physicochemical; conditions: Table 7, singlet oxygen scavengers, structural integrity by HPLC, human growth hormone 2.5 mg mL^−1 prior to drying, 25-40 kGy
Procedure: as §1, §2
Mobile phase was prepared by mixing 71 parts (by volume) of a solution of TRIS (0.05 M, in water adjusted with hydrochloric acid to a pH of 7.5) and 29 parts (by volume) of n-propylalcohol. The mobile phase was filtered prior to its use. The liquid chromatograph (Agilent 1100 series) was equipped with a 214 nm detector and a 4.6×250 mm column (Phenomenex 00G-4167-E0) packed with butylsilyl silica gel with a granulometry of 5 μm and a porosity of 30 nm, maintained at 45° C. The flow rate was maintained at 0.5 mL min^−1. 15 μL of aqueous samples of human growth hormone (typically 1-2.5 mg mL^−1) were injected. Results were expressed as % of peak area corresponding to the gamma irradiated sample with respect to that measured in non-irradiated sample.

Sandostatin = test: Recovery of structural integrity of Sandostatin in dry formulations following gamma irradiation (HPLC); assay type: physicochemical; conditions: Table 8, singlet oxygen scavengers, structural integrity by HPLC, excipient:Sandostatin weight ratio 10:1, 25-40 kGy
Procedure: as §1, §2
Mobile phase A was 0.1 M triethylamine adjusted to pH 2.3 with phosphoric acid. Mobile phase B was acetonitrile. The mobile phases were filtered prior to their use. The following linear gradient was used: time 0: 90% A+10% B; time 35 min: 60% A+40% B. The liquid chromatograph (Agilent 1100 series) was equipped with a 214 nm detector, guard column and a 4.6×150 mm C18 column with a granulometry of 5 μm and a porosity of 30 nm, maintained at ambient temperature. The flow rate was maintained at 1.0 mL min^−1. Injection volume was 50 μL (typically sandostatin at 200 μg mL^−1). Results were expressed as % of main peak area (i.e. area of the peak corresponding to intact sandostatin measured in the gamma irradiated sample with respect to that measured in non-irradiated sample of identical composition). A chromatogram of a standard solution of sandostatin was recorded after every 12 samples to ensure that no drift in the position of the major peak had occurred. The control measurements ruled out any ambiguity in interpreting the chromatograms.

T1 sequence (P13006 17-605): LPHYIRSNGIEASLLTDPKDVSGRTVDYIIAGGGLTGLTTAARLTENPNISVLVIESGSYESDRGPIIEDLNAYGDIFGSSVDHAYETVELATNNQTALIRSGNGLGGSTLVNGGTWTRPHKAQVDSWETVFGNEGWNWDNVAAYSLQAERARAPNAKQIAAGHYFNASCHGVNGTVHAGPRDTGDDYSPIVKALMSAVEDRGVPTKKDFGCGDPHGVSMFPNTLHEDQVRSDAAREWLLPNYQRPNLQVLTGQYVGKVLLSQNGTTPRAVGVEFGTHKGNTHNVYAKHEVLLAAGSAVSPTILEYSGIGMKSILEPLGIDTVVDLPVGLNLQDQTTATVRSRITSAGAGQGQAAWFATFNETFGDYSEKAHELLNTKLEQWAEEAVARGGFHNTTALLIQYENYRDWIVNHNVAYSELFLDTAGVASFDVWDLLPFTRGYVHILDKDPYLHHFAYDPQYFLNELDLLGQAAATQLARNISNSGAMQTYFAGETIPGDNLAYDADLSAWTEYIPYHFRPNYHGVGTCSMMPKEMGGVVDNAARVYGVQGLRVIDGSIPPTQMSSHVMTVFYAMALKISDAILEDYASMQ
T2 sequence (P01241 27-217): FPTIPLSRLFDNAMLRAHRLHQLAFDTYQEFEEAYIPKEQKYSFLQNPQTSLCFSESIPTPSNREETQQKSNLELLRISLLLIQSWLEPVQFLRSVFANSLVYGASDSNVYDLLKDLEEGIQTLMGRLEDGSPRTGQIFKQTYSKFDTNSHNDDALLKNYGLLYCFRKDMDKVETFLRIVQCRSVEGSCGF

SMILES	Enzyme activity remaining after gamma-irradiation (glucose oxidase; Table 3, prior-art antioxidants, vs non-irradiated) [%]	Compatibility of the compound with human growth hormone (human growth hormone [1])	Compatibility of the compound with human growth hormone (human growth hormone [1]; listed as cysteine)	Rate constant k [2]	Compatibility of the compound with glucose oxidase (glucose oxidase; as excipient in the formulation)	Compatibility of the compound with human growth hormone (human growth hormone [1]; listed as N-acetylcysteine)	Enzyme activity remaining after gamma-irradiation (glucose oxidase; Table 5, singlet oxygen scavengers) [%]	Enzyme activity remaining after gamma-irradiation (catalase) [%]	Structural integrity remaining after gamma-irradiation (HPLC) (human growth hormone [3]) [%]	Enzyme activity remaining after gamma-irradiation (Sandostatin) [%]	Rate of reaction with singlet oxygen ([2]; Table 5) [M⁻¹ s⁻¹]	Rate of reaction with singlet oxygen ([2]; Table 6) [M⁻¹ s⁻¹]	Rate of reaction with singlet oxygen ([2]; Table 7) [M⁻¹ s⁻¹]	Rate of reaction with singlet oxygen ([2]; Table 8) [M⁻¹ s⁻¹]
N[C@@H](CS)C(=O)O [Cysteine]	49.1	**Compound was found incompatible with human growth hormone	incompatibility with human growth hormone	k = 5 × 10^7 L mol^−1 s^−1										
CC(=O)N[C@@H](CS)C(=O)O [N-Acetylcysteine]		**Compound was found incompatible with human growth hormone			**Compound was found incompatible with glucose oxidase	incompatibility with human growth hormone								
N[C@@H](Cc1c[nH]c2ccccc12)C(=O)O [Tryptophan]				k = 1.3 × 10^7 L mol^−1 s^−1			37.0	9.1	54.6	82.2	1.3e+07	1.3e+07	1.3e+07	1.3e+07
